{"source": "patent US20250248926A1", "about": "“AN INJECTABLE MICROPARTICLE SYSTEM AND METHOD OF PREPARING THEREOF” (AMRITA VISHWA VIDYAPEETHAM, priority 2022, published 2025)", "key": {"C6 (rat glioma) cells": {"test_system": "C6 (rat glioma) cells", "test": "In vitro cytotoxicity, MTT assay, C6 cells", "assay_type": "cell-based", "description": "(§1) Cells of seeding density 4×10^4 cells/well were treated with concentrations from 1 μM-100 μM of BCNU or PL loaded microstructures 24 hours post seeding. MTT assay was performed 96 hours post treatment. […] With radiation, the cell viability of non-drug treated controls reduced by ˜60%."}, "[1]": {"test_system": "T98G (human glioma) cells", "test": "In vitro cytotoxicity, MTT assay, T98G cells", "assay_type": "cell-based", "conditions": "100 μM (highest concentration), MTT 96 hours post treatment", "description": "as §1"}, "[2]": {"conditions": "rat brain", "description": "200-250 g Wistar rats (female) were selected for the study. Respective microparticle gel was injected (10 μl/1 mg BCNU) injected at coordinates 2 mm lateral, 2 mm anterior and 2 mm depth using stereotactic equipment. Animals were euthanized 3, 7 and 15 days post injection, brains were excised and stored at −80° C. Each brain was sliced into 1 mm sections and each section was homogenized in 1 ml MilliQ water (pH 4) and precipitated using 10 ml Ethanol. The samples are centrifuged at 10000 rpm for 15 minutes for drug extraction (repeated 4 times). The solvents are evaporated using a vacuum centrifuge and then remnant pellets are analyzed for their drug content using HPLC."}, "[3]": {"conditions": "by 3rd hour, CT", "description": "Contrast agent Iodine loaded microstructures are injected in left and right hemispheres of a goat brain phantom and imaged over 4 hours using MicroCT (FIG. 21 (A-E)).\nIodine loaded microstructures (in the form of injectable gels) are injected in left and right hemispheres of a goat brain phantom and imaged over 4 hours using CT (FIG. 21 (A-E))."}}, "note": "Like-named read-outs stand apart in the source and are kept apart here."}
{"smiles": "COc1cc(/C=C/C(=O)N2CCC=CC2=O)cc(OC)c1OC", "note": "[free PL, Piperlongumine]", "values": [{"measurement": "cells viable (cell viability)", "setting": "C6 (rat glioma) cells; C6 cells, 100 μM, MTT 96 hours post treatment", "value": "~3", "unit": "%"}, {"measurement": "cells remaining (cell viability)", "setting": "[1]", "value": 16.6, "unit": "%"}]}
{"smiles": "O=NN(CCCl)C(=O)NCCCl", "note": "[free BCNU, 1,3-Bis(2-chloroethyl)-1-nitrosourea]", "values": [{"measurement": "viability at 100 µM", "setting": "C6 (rat glioma) cells; Rattus norvegicus, C6, 96 h, read-out: cells viable (cell viability)", "value": "~20", "unit": "%"}, {"measurement": "drug in brain", "setting": "[2]; day-3 post intracranial injection", "value": 15, "unit": "%"}, {"measurement": "drug in brain", "setting": "[2]; day-15 post intracranial injection", "value": 3.9, "unit": "%"}]}
{"smiles": "II", "note": "[Free iodine]", "values": [{"measurement": "diffusion", "setting": "[3]", "value": 1.6, "unit": "cm"}]}
